Literature values in patent US20090155355A1, “Particles in a capsule” (Multi Formulations Ltd., priority 2007, published 2009).
“Also recorded” adds a separate entry of the source. Values belong to the molecule of their own block, whether it stands above or below them.

Experiments:
[1] = in vivo
[2] = combination with acetaminophen or ibuprofen
[3] = oral, single 400 mg dose, humans

plasma half-life [1]: about 2 hrs
time of peak plasma levels [1]: 0.5 to 2 h
SMILES: CC(=O)Nc1ccc(O)cc1 [Acetaminophen]

SMILES: Cn1c(=O)c2c(ncn2C)n(C)c1=O [caffeine, Caffeine]
half-life (mean time) (highly variable): about 5 hrs
time to peak levels (in vivo): about 1 hr
effect on analgesics [2]: enhance and prolong the effects of acetaminophen; also recorded: enhance the analgesic effects of ibuprofen

time to maximum plasma concentration [3]: about 1.3 hrs
SMILES: CC(C)Cc1ccc(C(C)C(=O)O)cc1 (stereo not drawn) [ibuprofen, Ibuprofen]
